Test results as given in PubChem BioAssay (NCI).
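Here, GI50 denotes the concentration required for 50% inhibition of growth. TGI: total growth inhibition.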

Columns and labels:
Assay in all cases: DTP human tumour cell line panel, 384-well format
[1] = system: RPMI-8226 leukemia
[2] = system: NCI-H460 NSCLC
[3] = system: NCI-H226 lung
[4] = system: U251 glioblastoma
[5] = system: HS 578T breast
[6] = system: NCI-H23 lung
[7] = system: CAKI-1 renal
[8] = system: NCI-H322M lung
[9] = system: SF-295 CNS
[10] = system: ACHN renal
[11] = system: BT-549 breast
[12] = system: SK-MEL-28 melanoma
[13] = system: SNB-19 CNS
[14] = system: MDA-MB-435 melanoma
[15] = system: MOLT-4 leukemia
[16] = system: A498 renal
[17] = system: T-47D breast
[18] = system: HCT-116 colon
[19] = system: SF-268 CNS
[20] = system: NCI-H522 lung
[21] = system: HOP-92 NSCLC
[22] = system: SW-620 colon
[23] = system: IGROV1 ovarian
[24] = system: RXF 393 renal
[25] = system: SF-539 CNS
[26] = system: EKVX NSCLC
[27] = system: A549 NSCLC
[28] = system: OVCAR-5 ovarian
[29] = system: NCI/ADR-RES ovarian
[30] = system: K-562 leukemia
[31] = system: COLO 205 colon
[32] = system: M14 melanoma
[33] = system: OVCAR-4 ovarian
[34] = system: SK-MEL-5 melanoma
[35] = system: HCC-2998 colon
[36] = system: HT29 colon
[37] = system: OVCAR-8 ovarian
[38] = system: OVCAR-3 ovarian
[39] = system: SNB-75 CNS
[40] = system: KM12 colon
[41] = system: CCRF-CEM leukemia
[42] = system: UACC-257 melanoma
[43] = system: LOX IMVI melanoma
[44] = system: SK-OV-3 ovarian
[45] = system: UACC-62 melanoma
[46] = system: HCT-15 colon
[47] = system: PC-3 prostate
[48] = system: SN12C renal
[49] = system: MCF7 breast
[50] = system: MALME-3M melanoma
[51] = system: MDA-MB-468 breast
[52] = system: HOP-62 NSCLC
[53] = system: UO-31 renal
[54] = system: MDA-MB-231 breast
[55] = system: TK-10 renal
[56] = system: DU-145 prostate
[57] = system: 786-0 renal
[58] = system: HL-60(TB) leukemia

With `NC(=O)[C@H]1CCN(c2ncnc(N)c2F)C[C@@H]1N1CCC[C@@H](Nc2cc(Cl)cc(C(F)(F)F)c2)C1=O` the GI50 [1] was 11 µM, the TGI [1] was 23.1 µM and the GI50 [2] was 13.4 µM. The TGI [2] was 27.1 µM, the GI50 [3] was 10.9 µM and the TGI [3] was 34.5 µM. It also gave a GI50 [4] of 17.2 µM, a TGI [4] of 60 µM and a GI50 [5] of 17.4 µM. The TGI [5] was 39.3 µM, the GI50 [6] was 14.8 µM and the TGI [6] was 32.2 µM. It also gave a GI50 [7] of 11.5 µM, a TGI [7] of 54.3 µM and a GI50 [8] of 21.3 µM. It also gave a TGI [8] of 52 µM, a GI50 [9] of 14.5 µM and a TGI [9] of 31.6 µM. The GI50 [10] was 7.86 µM, the TGI [10] was 25.9 µM and the GI50 [11] was 15.6 µM. The TGI [11] was 31.6 µM, the GI50 [12] was 15.4 µM and the TGI [12] was 32.5 µM. The GI50 [13] was 30 µM, the TGI [13] was greater than 100 µM and the GI50 [14] was 19.9 µM. The TGI [14] was 67.1 µM, the GI50 [15] was 1.85 µM and the TGI [15] was 6.1 µM. The GI50 [16] was 12.5 µM, the TGI [16] was 29.2 µM and the GI50 [17] was 6.32 µM. For the same compound, the TGI [17] was 23.2 µM, the GI50 [18] was 9.04 µM and the TGI [18] was 22 µM. It also gave a GI50 [19] of 3.26 µM, a TGI [19] of 10.5 µM and a GI50 [20] of 5.3 µM. For the same compound, the TGI [20] was 17.9 µM, the GI50 [21] was 13.8 µM and the TGI [21] was 33.7 µM. It also gave a GI50 [22] of 15.2 µM, a TGI [22] of 31.9 µM and a GI50 [23] of 2.34 µM. For the same compound, the TGI [23] was 17.4 µM, the GI50 [24] was 3.44 µM and the TGI [24] was 13.4 µM. The GI50 [25] was 14.5 µM, the TGI [25] was 33.8 µM and the GI50 [26] was 12.2 µM. The TGI [26] was 39.4 µM, the GI50 [27] was 10.3 µM and the TGI [27] was 25 µM. The GI50 [28] was 12.9 µM, the TGI [28] was 40.2 µM and the GI50 [29] was 47.6 µM. It also gave a TGI [29] greater than 100 µM, a GI50 [30] of 8.33 µM and a TGI [30] of 20.9 µM. The GI50 [31] was 7.06 µM, the TGI [31] was 21.5 µM and the GI50 [32] was 10.9 µM. The TGI [32] was 24.4 µM, the GI50 [33] was 19.9 µM and the TGI [33] was 64.8 µM. For the same compound, the GI50 [34] was 9.85 µM, the TGI [34] was 21.6 µM and the GI50 [35] was 13.6 µM. It also gave a TGI [35] of 28.5 µM, a GI50 [36] of 7.05 µM and a TGI [36] of 22 µM. It also gave a GI50 [37] of 21.5 µM, a TGI [37] of 73.6 µM and a GI50 [38] of 16.3 µM. For the same compound, the TGI [38] was 35.4 µM, the GI50 [39] was 12.5 µM and the TGI [39] was 34.2 µM. It also gave a GI50 [40] of 4.29 µM, a TGI [40] of 30.7 µM and a GI50 [41] of 10.2 µM. It also gave a TGI [41] of 22.1 µM, a GI50 [42] of 14.9 µM and a TGI [42] of 28.5 µM. For the same compound, the GI50 [43] was 11.2 µM, the TGI [43] was 23.4 µM and the GI50 [44] was 6.43 µM. For the same compound, the TGI [44] was 40.1 µM, the GI50 [45] was 6.7 µM and the TGI [45] was 19.7 µM. It also gave a GI50 [46] of 8.54 µM, a TGI [46] of 32.7 µM and a GI50 [47] of 11.6 µM. It also gave a TGI [47] of 46.8 µM, a GI50 [48] of 8.02 µM and a TGI [48] of 38.4 µM. The GI50 [49] was 14.5 µM, the TGI [49] was 36.3 µM and the GI50 [50] was 14.5 µM. For the same compound, the TGI [50] was 28.5 µM, the GI50 [51] was 2.21 µM and the TGI [51] was 11.9 µM. It also gave a GI50 [52] of 13.6 µM, a TGI [52] of 35.8 µM and a GI50 [53] of 20.3 µM. The TGI [53] was 57.4 µM, the GI50 [54] was 10.7 µM and the TGI [54] was 39.7 µM. For the same compound, the GI50 [55] was 14.8 µM, the TGI [55] was 37.5 µM and the GI50 [56] was 15.6 µM. It also gave a TGI [56] of 53.1 µM, a GI50 [57] of 15.6 µM and a TGI [57] of 53.4 µM. The GI50 [58] was 10.8 µM and the TGI [58] was 22.7 µM.
